According to US5739284A, “Compositions corresponding to a high-affinity glutamate transporter molecule and methods for making and using same” (Brigham and Women's Hospital, Inc., priority 1995, dated 1998):

Assays:
[1] = system: excitatory amino acid carrier protein derived from rabbit; assay: effect of external K+ on current evoked by L-glutamate; assay type: cell-based; details: 50 μM L-glutamate, 0-50 mM K+, -30 mV, FIG. 10
Procedure: Xenopus laevis oocytes were injected with cRNA (25 ng/oocyte) encoding for the excitatory amino acid carrier protein derived from rabbit as described in Example 1. Electrophysiological measurements were performed 3-4 days after injection using a conventional two-microelectrode voltage clamp method (Axoclamp-2A, Axon Instruments, CA).
The bath medium were prepared containing potassium ion concentrations in concentrations ranging from 0 mM-50 mM. The bath media were held at a holding potential of -30 mV, and normalized to the current measured on the same oocyte (the value at 0 mM K^+ is 100%). Consecutive current measurements were made on single oocytes after changing to bath medium containing the appropriate K^+ concentration. […] The bath medium contained z mM KCl (where z=0-50), 50-z mM choline Cl, 50 mM NaCl, 1.8 mM CaCl2, 1.0 mM MgCl2, 10 mM BaCl2, 5 mM HEPES pH 7.4.

[2] = target: T1, excitatory amino acid carrier protein (EAAC1) derived from rabbit (Oryctolagus cuniculus, UniProt P31597); assay: uptake of 14C-L-glutamate or 14C-L-aspartate by Xenopus oocytes injected with rabbit EAAC1 cRNA; assay type: cell-based; details: carrier protein of Seq. ID No. 4
T1 sequence (P31597 1-524): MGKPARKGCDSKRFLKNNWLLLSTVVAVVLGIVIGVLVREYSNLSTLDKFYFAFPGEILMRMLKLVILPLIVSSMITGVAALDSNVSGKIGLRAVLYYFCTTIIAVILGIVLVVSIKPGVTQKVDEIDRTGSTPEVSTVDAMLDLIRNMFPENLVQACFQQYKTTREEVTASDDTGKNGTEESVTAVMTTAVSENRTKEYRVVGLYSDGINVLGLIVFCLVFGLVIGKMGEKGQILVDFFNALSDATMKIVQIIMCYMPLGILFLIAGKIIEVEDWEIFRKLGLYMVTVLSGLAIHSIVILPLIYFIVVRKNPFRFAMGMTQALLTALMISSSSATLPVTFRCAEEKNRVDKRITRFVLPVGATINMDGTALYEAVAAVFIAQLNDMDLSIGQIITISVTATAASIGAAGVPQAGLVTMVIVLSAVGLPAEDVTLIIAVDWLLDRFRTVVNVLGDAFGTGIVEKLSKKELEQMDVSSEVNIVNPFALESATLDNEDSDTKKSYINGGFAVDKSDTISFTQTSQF
Procedure: Poly(A)^+ RNA was isolated and injected into collagenase-treated and manually-defolliculated Xenopus laevis oocytes.
All uptakes in this and the following figures were performed with 6-8 oocytes, 3 days after injection. […] For the sodium-free medium, sodium chloride was replaced by Choline-chloride. RNA-injected oocytes were injected with 25 ng cRNA in 50 nl.
The solutions described above were modified to the extent that acetate ion was substituted for chloride ion.

Structure (SMILES)	inhibition of L-glutamate evoked current by external K+ [1]	activity for glutamine transport [2]
[K+] [K^+, potassium ion]	greater degree of inhibition of current at higher K^+ concentration	–
NC(=O)CC[C@H](N)C(=O)O [Glutamine]	–	slight activity
